From patent US20240082409A1, “Modified peptide ligands for stable delivery of highly potent payloads to tumors: Method of making and using same” (priority 2020, published 2024)
“And” between values parts separate entries of the source, which are not always exact repeats. Equal values may be shown once. “Also recorded” adds a separate entry of the source. Numbered stars: 1 amine (or outer) side, 2 acyl side, 3 side chain; on linkers, the order of the positions; unused ones are H or OH. Bridge positions count the residues as written; N and C are the ends. Square brackets hold non-standard residues; d marks the D form. Peptide text beside a SMILES is read from it. I, II: the chains in the order shown. * marks the point of attachment. X1 = O=C([C@@H](CCCCn1nnc2c1-c1ccccc1N([*:3])Cc1ccccc1-2)N[*:1])[*:2]; Dolaproine = CO[C@@H]([C@@H]1CCCN1)[C@@H](C)C(=O)O; X3 = O=C(CCC(=O)[*:1])NCCOCCOCCOCCC(=O)[*:2]; Dil = CC[C@H](C)[C@H](NC)[C@@H](CC(=O)O)OC; PABC = O=C(OCc1ccc(N[*:1])cc1)[*:2]; X2 = C[C@@H](N*)[C@@H](O)c1ccccc1; d3Pal = N[C@H](Cc1cccnc1)C(=O)O; Cit = NC(=O)NCCC[C@H](N)C(=O)O; pGlu = O=C1CC[C@@H](C(=O)O)N1; NMeV = CN[C@H](C(=O)O)C(C)C

What was measured:
[1] = In-vitro stability in human plasma (RP-HPLC/mass spectrometry); type: in vitro ADME
Protocol: (§1) FIGS. 7A, 7B, 7C and 7D depicts the in-vitro stability of OTS-P23 in human plasma at 0, 2, 8 and 24 hours incubation times respectively in accordance with a preferred embodiment of the present invention. OTS-P23 is incubated at 100 μg/100 μl in 80% plasma from human or for 0, 2, 8 or 24 hours. Solutions are then centrifuged using Amicon centrifugal devices (cut-off 10 KDa) and 20 μl of the lower molecular weight fractions are analyzed by RP-HPLC/mass spectrometry. […] A minor peak (2.26%) was detected with a molecular weight of 2240.3 Dalton (metabolite).
as §1, with “FIGS. 13A, 13B, 13C” for “FIGS. 7A, 7B, 7C”, “and 13D” for “and 7D”, “of OTS-P28” for “of OTS-P23”

[2] = system: normal 3T3 mouse fibroblasts; details: 0.165-100 nM, 3 hours exposure, then 93 hours, MTS
Protocol: (§2) FIG. 2A depicts the viability of HCC1806 and BT-549 TNBC cell lines as well as normal 3T3 mouse fibroblasts in presence of peptide drug conjugate OTS-P22 at increasing concentrations (Log 0.165-100 nM). Cells were plated at 10,000 cells/well on 96-well plates in RPMI or DMEM medium (pH 7.4) with 10% FBS or 10% BCS and after attachment they were washed and incubated with OTS-P22 in complete medium without antibiotics for 3 hours. After 3 hours, cells were washed and then incubated in complete medium without antibiotics for an additional 93 hours. At the end of the incubation period cells were washed and cell viability was measured using MTS assay according to the manufacturer's instructions (Promega, Madison, WI). Data shown are percentage mean value and standard error of triplicate measurements. Differences between mean values were evaluated by one-way ANOVA followed by Tukey's honestly significant difference procedure. **<0.01 were highly significant.

[3] = system: HCC1806 TNBC CDX; assay: Tumor growth of HCC1806 xenografts in female SCID mice; type: in vivo
Protocol: FIG. 4A depicts tumor volume in female SCID mice bearing HCC1806 TNBC CDX during treatment with saline; OTS-P22 or MMAE at a single i.v. injection of 0.5 μmol/kg on day 0 (arrow). Tumor volume values in mm^3 are presented as mean±standard error of 10 mice per group. Statistical analysis was performed using ANOVA followed by Tukey's multiple comparison test. ***<0.001, **<0.01, *<0.05 were significant.

[4] = Animal weight, hematology and normal organ histology in treated SCID mice; type: in vivo; details: for effect on animal weight: single i.v. injection 0.5 μmol/kg, SCID mice bearing HCC1806
From the text: FIG. 4B depicts animal weight in female SCID mice bearing HCC1806 TNBC CDX during treatment with saline; OTS-P22 or MMAE at a single i.v. injection of 0.5 μmol/kg on day 0 (arrow). […] are presented as mean±standard error of 10 mice per group.
FIG. 5A depict hematology parameters of saline- and OTS-P22 treated SCID mice bearing HCC1806 TNBC xenografts (n=10) as described in FIG. 4A and into in accordance with the preferred embodiment of the present invention;
FIG. 5B depict representative hematoxylin-eosin staining slides of normal organs from saline- and OTS-P22 treated SCID mice bearing HCC1806 TNBC xenografts as described in FIG. 4A and into in accordance with the preferred embodiment of the present invention;

[5] = system: caspase activity in HCC1806 cells; details: 100 nM, 48 hours
Protocol: At the end of the incubation, cells were washed three times, lyzed and proteins quantified using Bradford reagents. Apoptosis assay was performed using 100 μg proteins according to ApoTarget Caspase Colorimetric Protease Assay Sampler Kit instructions (Invitrogen, Carlsbad, CA).

[6] = In-vitro potency of LHRH-based drug conjugates (summary statement); details: cell line not stated
[7] = system: HCC1806 TNBC cell line; assay: MTS proliferation (viability) assay, HCC1806; type: cell-based, human
Protocol: as §2

CC[C@H](C)[C@@H]([C@@H](CC(=O)N1CCC[C@H]1[C@H](OC)[C@@H](C)C(=O)N[C@H](C)[C@@H](O)c1ccccc1)OC)N(C)C(=O)[C@@H](NC(=O)[C@H](C(C)C)N(C)C(=O)OCc1ccc(NC(=O)[C@H](CCCNC(N)=O)NC(=O)[C@@H](NC(=O)CCOCCOCCOCCNC(=O)CCC(=O)N2Cc3ccccc3-c3nnn(CCCC[C@@H](NC(=O)[C@H](Cc4ccc(O)cc4)NC(=O)[C@H](CO)NC(=O)[C@@H](Cc4cccnc4)NC(=O)[C@H](Cc4c[nH]cn4)NC(=O)[C@@H]4CCC(=O)N4)C(=O)N[C@@H](CC(C)C)C(=O)N[C@@H](CCCNC(=N)N)C(=O)N4CCC[C@H]4C(=O)N[C@H](C)C(N)=O)c3-c3ccccc32)C(C)C)cc1)C(C)C [OTS-P22, Glp-His-DPal-Ser-Tyr-DLys[dPEG3-Val-Cit-PABC-MMAE]-Leu-Arg-Pro-DAla-NH2] (I: [pGlu]H[d3Pal]SY[X1]LRP[dA]-NH2 / II: V[Cit][PABC][NMeV]V[Dil][Dolaproine]-X2; linker I:6-II:N via X3)
minor peak (metabolite, 2240.3 Dalton) ([1]; 80% human plasma, 8 hours incubation): 2.26%
conjugate still intact ([1]; 80% human plasma, 8 hours incubation, 100 μg/100 μl): 97.74%
remaining at 8 h, 100 μg/100 μl ([1]; 80% human plasma, 8 hours incubation, 100 μg/100 μl, read-out: conjugate still intact): 97.7%
effect on viability of 3T3 normal fibroblasts [2]: no effect
potency relative to AEZS-108 in term of in-vivo tumor growth inhibition of HCC1806 xenografts ([3]; compared with first generation conjugate AEZS-108): at least 16 times
partial response ([3]; single i.v. 0.5 μmol/kg, 21 days, 80.5% in 2/10 mice, 88.5% in 1/10 mice): 80.5% and 88.5%
tumor growth inhibition ([3]; single i.v. injection 0.5 μmol/kg (1.435 mg/kg), 21 days post-treatment, SCID mice): 100%
mice showing complete response ([3]; single i.v. injection 0.5 μmol/kg, 21 days post-treatment, 10 mice per group): 7/10
effect on hematology ([4]; SCID mice bearing HCC1806 xenografts): No signifcant effect
effect on normal tissue histology ([4]; SCID mice bearing HCC1806 xenografts, hematoxylin-eosin): No signifcant effect
effect on animal weight [4]: No signifcant effect; also recorded: Neither treatment with OTS-P22 or MMAE affected animal weight
increase of caspase activity as compared to saline-treated cells [5]: 1.5 fold
in-vitro potency (in words) [6]: higher potency at low nanomolar concentrations

Glp-His-DPal-Ser-Tyr-DLys[dPEG8-Val-Cit-PABC-MMAE]-Leu-Arg-Pro-DAla-NH2 [OTS-P23]
in-vitro potency (in words) [6]: higher potency at low nanomolar concentrations

CC[C@H](C)[C@@H]([C@@H](CC(=O)N1CCC[C@H]1[C@H](OC)[C@@H](C)C(=O)N[C@H](C)[C@@H](O)c1ccccc1)OC)N(C)C(=O)[C@@H](NC(=O)[C@@H](NC)C(C)C)C(C)C [MMAE, monomethyl auristatin E, reference compound] (H-[NMeV]V[Dil][Dolaproine]-X2)
effect on tumor growth (in words) ([3]; single i.v. injection 0.5 μmol/kg, end of 21 days study): did not show any significant tumor growth inhibition; also recorded: no significant effect
effect on animal weight [4]: Neither treatment with OTS-P22 or MMAE affected animal weight

Glp-His-Trp-DSer-Tyr-DLys[-dPEG5-Val-Cit-PABC-MMAE]-Leu-Arg-Pro-NHEt [OTS-P23b]
in-vitro potency (in words) [6]: higher potency at low nanomolar concentrations

Glp-His-DPal-Ser-Tyr-DCys[Val-Cit-PABC-MMAE]-Leu-Arg-Pro-DAla-NH2 [OTS-P26]
effect on viability of HCC1806 TNBC cells (in words) ([7]; MTS proliferation assay): dose-dependent manner
in-vitro potency (in words) [6]: higher potency at low nanomolar concentrations

Glp-DHis-Trp-DSer-Tyr-DLys[Glut-Val-Cit-PABC-MMAE]-Leu-Arg-Pro-DAla-NH2 [OTS-P31]
in-vitro potency (in words) [6]: higher potency at low nanomolar concentrations

Glp-His-DPal-Ser-Tyr-DCys[dPEG8-Val-Cit-PABC-MMAE]-Leu-Arg-Pro-DAla-NH2 [OTS-P28]
stability in human plasma (in words) ([1]; human plasma): highly stable
anti-proliferative activity in-vitro on HCC1806 TNBC cell line (in words) [7]: low nanomolar concentrations
in-vitro potency (in words) [6]: higher potency at low nanomolar concentrations
